Reference: patent US6054435A, “6-O-substituted macrolides having antibacterial activity” (priority 1999, dated 2000)
Converted amounts (≈) assume the structure as drawn.

Columns and labels:
Experiment in all cases: in vitro antibacterial activity (MIC), agar dilution
Assay type in all cases: cell-based
[1] = tested on: Staphylococcus aureus ATCC 6538P; settings: organism code AA; BHI agar, 35-37° C., 20 to 24 hours; unit assumed
Protocol: (§1) Representative compounds of the present invention were assayed in vitro for antibacterial activity as follows: Twelve petri dishes containing successive aqueous dilutions of the test compound mixed with 10 mL of sterilized Brain Heart Infusion (BHI) agar (Difco 0418-01-5) were prepared. Each plate was inoculated with 1:100 (or 1:10 for slow-growing strains, such as Micrococcus and Streptococcus) dilutions of up to 32 different microorganisms, using a Steers replicator block. […] In addition, a control plate, using BHI agar containing no test compound, was prepared and incubated at the beginning and end of each test.
(§2) An additional plate containing a compound having known susceptibility patterns for the organisms being tested and belonging to the same antibiotic class as the test compound was also prepared and incubated as a further control, as well as to provide test-to-test comparability.
(§3) After incubation, each plate was visually inspected. The minimum inhibitory concentration (MIC) was defined as the lowest concentration of drug yielding no growth, a slight haze, or sparsely isolated colonies on the inoculum spot as compared to the growth control.

[2] = tested on: Streptococcus pyogenes PIU 2548; settings: organism code NN; BHI agar, 35-37° C., 20 to 24 hours; unit assumed
Protocol: as §1, §2, §3

Escherichia coli SS = settings: organism code RR; BHI agar, 35-37° C., 20 to 24 hours; unit assumed
Protocol: as §1, §2, §3

[3] = tested on: Staphylococcus epidermidis 3519; settings: organism code HH; BHI agar, 35-37° C., 20 to 24 hours; unit assumed
Protocol: as §1, §2, §3

[4] = tested on: Micrococcus luteus ATCC 4698; settings: organism code PP; BHI agar, 35-37° C., 20 to 24 hours; unit assumed
Protocol: as §1, §2, §3

[5] = tested on: Staphylococcus aureus NCTC10649M; settings: organism code EE; BHI agar, 35-37° C., 20 to 24 hours; unit assumed
Protocol: as §1, §2, §3

[6] = tested on: Staphylococcus aureus CMX 553; settings: organism code FF; BHI agar, 35-37° C., 20 to 24 hours; unit assumed
Protocol: as §1, §2, §3

[7] = tested on: Staphylococcus aureus A5177; settings: organism code BB; BHI agar, 35-37° C., 20 to 24 hours; unit assumed
Protocol: as §1, §2, §3

[8] = tested on: Nocardia Asteroides ATCC9970; settings: organism code VV; BHI agar, 35-37° C., 20 to 24 hours; unit assumed
Protocol: as §1, §2, §3

[9] = tested on: Enterococcus faecium ATCC 8043; settings: organism code II; BHI agar, 35-37° C., 20 to 24 hours; unit assumed
Protocol: as §1, §2, §3

[10] = tested on: Staphylococcus aureus CMX 642A; settings: organism code DD; BHI agar, 35-37° C., 20 to 24 hours; unit assumed
Protocol: as §1, §2, §3

[11] = tested on: Streptococcus bovis A-5169; settings: organism code JJ; BHI agar, 35-37° C., 20 to 24 hours; unit assumed
Protocol: as §1, §2, §3

[12] = tested on: Streptococcus agalactiae CMX 508; settings: organism code KK; BHI agar, 35-37° C., 20 to 24 hours; unit assumed
Protocol: as §1, §2, §3

Escherichia coli JUHL = settings: organism code QQ; BHI agar, 35-37° C., 20 to 24 hours; unit assumed
Protocol: as §1, §2, §3

Candida albicans CCH 442 = settings: organism code TT; BHI agar, 35-37° C., 20 to 24 hours; unit assumed
Protocol: as §1, §2, §3

[13] = tested on: Staphylococcus aureus A-5278; settings: organism code CC; BHI agar, 35-37° C., 20 to 24 hours; unit assumed
Protocol: as §1, §2, §3

[14] = tested on: Streptococcus pyogenes EES61; settings: organism code LL; BHI agar, 35-37° C., 20 to 24 hours; unit assumed
Protocol: as §1, §2, §3

[15] = tested on: Streptococcus Pneumonia GYR 1171; settings: organism code YY; BHI agar, 35-37° C., 20 to 24 hours; unit assumed
Protocol: as §1, §2, §3

[16] = tested on: Streptococcus pyogenes 930; settings: organism code MM; BHI agar, 35-37° C., 20 to 24 hours; unit assumed
Protocol: as §1, §2, §3

[17] = tested on: Mycobacterium smegmatis ATCC 114; settings: organism code UU; BHI agar, 35-37° C., 20 to 24 hours; unit assumed
Protocol: as §1, §2, §3

[18] = tested on: Staphylococcus aureus 1775; settings: organism code GG; BHI agar, 35-37° C., 20 to 24 hours; unit assumed
Protocol: as §1, §2, §3

[19] = tested on: Haemophilis Influenzae DILL AMP R; settings: organism code WW; BHI agar, 35-37° C., 20 to 24 hours; unit assumed
Protocol: as §1, §2, §3

[20] = tested on: Streptococcus Pneumonia ATCC6303; settings: organism code XX; BHI agar, 35-37° C., 20 to 24 hours; unit assumed
Protocol: as §1, §2, §3

[21] = tested on: Streptococcus Pneumonia 5979; settings: organism code ZZ; BHI agar, 35-37° C., 20 to 24 hours; unit assumed
Protocol: as §1, §2, §3

[22] = tested on: Streptococcus Pneumonia 5649; settings: organism code ZZA; BHI agar, 35-37° C., 20 to 24 hours; unit assumed
Protocol: as §1, §2, §3

SMILES	MIC [1]	MIC [2]	MIC (Escherichia coli SS)	MIC [3]	MIC [4]	MIC [5]	MIC [7]	MIC [8]	MIC [10]	MIC [11]	MIC [12]	MIC (Escherichia coli JUHL)	MIC (Candida albicans CCH 442)	MIC [13]	MIC [14]	MIC [15]	MIC [16]	MIC [17]	MIC [18]	MIC [19]	further results
CC[C@H]1OC(=O)[C@H](C)C(=O)[C@H](C)[C@@H](O[C@@H]2O[C@H](C)C[C@H](N(C)C)[C@H]2O)[C@](C)(OCC#Cc2ccc(-c3ccccn3)s2)C[C@@H](C)C(=O)[C@H](C)[C@H]2NC(=O)O[C@@]21C [Example 1]	0.05 µg/mL (≈ 0.0628 µM)	0.1 µg/mL (≈ 0.126 µM)	0.1 µg/mL (≈ 0.126 µM)	0.1 µg/mL (≈ 0.126 µM)	0.1 µg/mL (≈ 0.126 µM)	0.1 µg/mL (≈ 0.126 µM)															
CC[C@H]1OC(=O)[C@H](C)C(=O)[C@H](C)[C@@H](O[C@@H]2O[C@H](C)C[C@H](N(C)C)[C@H]2O)[C@](C)(OCC#Cc2ccc(-c3cccnc3)s2)C[C@@H](C)C(=O)[C@H](C)[C@H]2NC(=O)O[C@@]21C [Example 2]	0.05 µg/mL (≈ 0.0628 µM)	0.1 µg/mL (≈ 0.126 µM)	0.1 µg/mL (≈ 0.126 µM)	0.05 µg/mL (≈ 0.0628 µM)	0.1 µg/mL (≈ 0.126 µM)	0.05 µg/mL (≈ 0.0628 µM)	0.05 µg/mL (≈ 0.0628 µM)	0.05 µg/mL (≈ 0.0628 µM)	0.05 µg/mL (≈ 0.0628 µM)												MIC [6]: 0.05 µg/mL (≈ 0.0628 µM); MIC [9]: 0.05 µg/mL (≈ 0.0628 µM)
CC[C@H]1OC(=O)[C@H](C)C(=O)[C@H](C)[C@@H](O[C@@H]2O[C@H](C)C[C@H](N(C)C)[C@H]2O)[C@](C)(OCC#Cc2ccc(-c3ccncc3)s2)C[C@@H](C)C(=O)[C@H](C)[C@H]2NC(=O)O[C@@]21C [Example 3]	0.05 µg/mL (≈ 0.0628 µM)	0.1 µg/mL (≈ 0.126 µM)	0.2 µg/mL (≈ 0.251 µM)	> 100 µg/mL	0.05 µg/mL (≈ 0.0628 µM)		0.05 µg/mL (≈ 0.0628 µM)	0.01 µg/mL (≈ 0.0126 µM)	0.1 µg/mL (≈ 0.126 µM)	≤ 0.05 µg/mL	≤ 0.05 µg/mL	100 µg/mL (≈ 126 µM)	> 100 µg/mL	> 100 µg/mL	≤ 0.05 µg/mL						
CC[C@H]1OC(=O)[C@H](C)C(=O)[C@H](C)[C@@H](O[C@@H]2O[C@H](C)C[C@H](N(C)C)[C@H]2O)[C@](C)(OCC#Cc2ccc(-c3cscn3)s2)C[C@@H](C)C(=O)[C@H](C)[C@H]2NC(=O)O[C@@]21C [Example 30]	0.02 µg/mL (≈ 0.0249 µM)	0.1 µg/mL (≈ 0.125 µM)	0.1 µg/mL (≈ 0.125 µM)	0.05 µg/mL (≈ 0.0623 µM)	0.1 µg/mL (≈ 0.125 µM)	0.05 µg/mL (≈ 0.0623 µM)	0.02 µg/mL (≈ 0.0249 µM)	0.01 µg/mL (≈ 0.0125 µM)		≤ 0.005 µg/mL	0.02 µg/mL (≈ 0.0249 µM)	12.5 µg/mL (≈ 15.6 µM)	> 100 µg/mL	> 100 µg/mL	0.02 µg/mL (≈ 0.0249 µM)	≤ 0.004 µg/mL	6.2 µg/mL (≈ 7.73 µM)	0.39 µg/mL (≈ 0.486 µM)	> 100 µg/mL	2 µg/mL (≈ 2.49 µM)	MIC [20]: ≤ 0.004 µg/mL; MIC [21]: 1 µg/mL (≈ 1.25 µM); MIC [22]: 0.25 µg/mL (≈ 0.312 µM)
CC[C@H]1OC(=O)[C@H](C)C(=O)[C@H](C)[C@@H](O[C@@H]2O[C@H](C)C[C@H](N(C)C)[C@H]2O)[C@](C)(OCC#Cc2ccc(-c3ccccn3)s2)C[C@@H](C)C2=NCCN3C(=O)O[C@@]1(C)[C@H]3[C@H]2C [Example 35]	0.05 µg/mL (≈ 0.0609 µM)	0.2 µg/mL (≈ 0.244 µM)	0.39 µg/mL (≈ 0.475 µM)	0.1 µg/mL (≈ 0.122 µM)	0.2 µg/mL (≈ 0.244 µM)	0.2 µg/mL (≈ 0.244 µM)	0.1 µg/mL (≈ 0.122 µM)	0.02 µg/mL (≈ 0.0244 µM)		0.01 µg/mL (≈ 0.0122 µM)	0.05 µg/mL (≈ 0.0609 µM)	25 µg/mL (≈ 30.4 µM)	> 100 µg/mL	> 100 µg/mL	0.02 µg/mL (≈ 0.0244 µM)	≤ 0.004 µg/mL	6.2 µg/mL (≈ 7.55 µM)	0.2 µg/mL (≈ 0.244 µM)	> 100 µg/mL	4 µg/mL (≈ 4.87 µM)	MIC [20]: ≤ 0.004 µg/mL; MIC [21]: 4 µg/mL (≈ 4.87 µM); MIC [22]: 0.25 µg/mL (≈ 0.304 µM)
CC[C@H]1OC(=O)[C@H](C)C(=O)[C@H](C)[C@@H](O[C@@H]2O[C@H](C)C[C@H](N(C)C)[C@H]2O)[C@](C)(OCC#Cc2ccc(-c3ccccn3)s2)C[C@@H](C)C(=O)[C@H](C)[C@H]2N(N)C(=O)O[C@]12C [Example 36]	0.05 µg/mL (≈ 0.0617 µM)	0.39 µg/mL (≈ 0.481 µM)	0.2 µg/mL (≈ 0.247 µM)	0.1 µg/mL (≈ 0.123 µM)	0.1 µg/mL (≈ 0.123 µM)	0.1 µg/mL (≈ 0.123 µM)	0.05 µg/mL (≈ 0.0617 µM)						> 100 µg/mL	> 100 µg/mL				1.56 µg/mL (≈ 1.92 µM)	> 100 µg/mL		
